# Source: patent US11246877B2, “Nanoparticles for chemotherapy, targeted therapy, photodynamic therapy, immunotherapy, and any combination thereof” (The University of Chicago, priority 2016, dated 2022)
# Read-outs that look alike come from different tables or passages of the source.
# Key:
# H82 cells [1] = test: In vitro cytotoxicity against small cell lung cancer cells, MTS, 96 h; type: cell-based; conditions: Homo sapiens, NCI-H82, etoposide concentration
# Method: H82 cells seeded on 96-well plates at a density of 2000 cells/well were treated with Zn/ET and free etoposide at various etoposide concentrations for 96 h. The cell viability was then detected by MTS assay (Promega, Madison, Wis., United States of America) and the IC50 values were calculated accordingly. […] ET is likely released from Zn/ET via intracellular reduction by endogenous thiol groups as shown below in Scheme 9.
# H69 cells = test: In vitro cytotoxicity of NCP-1/ET/siRNA in SCLC, MTS, 72 h; type: cell-based
# Method: (§1) Small cell lung cancer (SCLC) cell lines H82 and H69 cells were seeded into 96-well plate at 2000 cells/well for 24 h. Afterwards, cells were treated by cisplatin, ET, cisplatin+ET, NCP-1, NCP-1/ET, and NCP-1/ET/siRNAs at various concentrations and incubated for another 72 h. The cell viability was then determined via MTS assay by microplate reader.
# H82 cells [2] = test: as above; type: cell-based
# Method: as §1
# CT26 cells [3] = test: In vitro PDT cytotoxicity; type: cell-based, murine; conditions: read-out: Oxaliplatin IC50
# Method: (§2) The cytotoxicity of NCP-2@pyrolipid was evaluated against two colorectal cancer cells including murine colorectal adenocarcinoma CT26 and human colorectal adenocarcinoma HT29 cells. By combining chemotherapy of oxaliplatin and PDT modalities into one single nanoparticle, NCP-2@pyrolipid induces apoptosis/necrosis as well as elicit immunogenic cell death upon LED light irradiation. […] However, upon irradiation at 54 J/cm^2 light irradiation (670 nm), the oxaliplatin IC50 of NCP-2@pyrolipid was decreased by ˜4-fold and ˜5-fold in CT26 and HT29 cells, respectively.
# CT26 cells [4] = test: In vitro cytotoxicity of NCP-2/PTX, MTS; type: cell-based, murine; conditions: read-out: Oxaliplatin IC50
# Method: (§3) The cytotoxicity of NCP-2/PTX was evaluated against two colorectal cancer cells including murine colorectal adenocarcinoma CT26 and murine colorectal carcinoma MC38. By combining two chemotherapeutic agents with vastly different solubility requirements, NCP-2/PTX elicited substantial anticancer efficacy owing to synergy between the drugs.
# (§4) The IC50 of oxaliplatin was substantially lower than that of paclitaxel by MTS assay, likely due to the hydrophobicity of paclitaxel. Paclitaxel was prepared in a stock solution of 3:1 ethanol:water ratio at 1 mg/ml before subsequent dilution to prepare free drug doses. The combination index (CI50) for the two drugs was much more favorable for the 1:1 compared to 2:1 molar ratio, with equal oxaliplatin doses.
# MC38 cells [5] = test: In vitro cytotoxicity of NCP-2/PTX, MTS; type: cell-based, murine; conditions: MC38, drug ratio 1:1; read-out: Oxaliplatin IC50
# Method: as §3, §4
# CT26 cells [6] = test: Immunogenic cell death: cell surface CRT by flow cytometry; type: cell-based, murine; conditions: CT26, oxaliplatin 10 μM and/or DHA 20 μM, 24 h
# Method: In Vitro Immunogenic Cell Death The immunogenic cell death induced by NCP-3/DHA was evaluated by flow cytometry and ELISA. For flow cytometry analysis, CT26 cells were seeded at 1×10^6 cells per well in 6-well plates and further cultured for 24 h. The culture media were replaced by 2 mL of fresh culture media containing 10% FBS. Oxaliplatin, DHA, chol-DHA, oxaliplatin+DHA, NCP-3, Zn/DHA and NCP-3/DHA were added to the cells, respectively, at equivalent oxaliplatin and/or DHA dose of 10 μM and 20 μM, respectively. Cells incubated with PBS served as control. Following incubation of 24 h, the cells were collected, incubated with AlexaFluor 488-CRT antibody for 2 h, and stained with PI. The samples were analyzed by flow cytometer (LSRII Orange, BD, Franklin Lakes, N.J., United States of America) to identify cell surface CRT. The fluorescence intensity of stained cells was gated on PI-negative cells.
# CT26 cells [7] = test: In vitro PDT evoked immunogenic cell death (surface CRT); type: cell-based, murine; conditions: with or without irradiation, Pt 5 μM, pyrolipid 1.6 μM
# Method: Calreticulin (CRT) is a distinct biomarker exposed on the surface of cells undergoing immunogenic cell death (ICD). The immunogenic cell death induced by NCP-2@pyrolipid was evaluated by immunofluorescence and flow cytometry. For immunofluorescence analysis, CT26 cells were seeded at 5×10^5 cells per well in 6-well plates and further cultured for 24 h. The culture media were replaced by 2 mL of fresh culture media containing 10% FBS. Oxaliplatin, NCP-2, NCP-2@pyrolipid, and porphysome were added to the cells, respectively, at an equivalent Pt dose of 5 μM and pyrolipid dose of 1.6 μM. Cells incubated with PBS served as control. After 24-h incubation, the cells were irradiated with LED light (670 nm) at 100 mW/cm^2 for 15 min (equal to 90 J/cm^2). Following further incubation of 4 h, the cells were washed with PBS three times, fixed with 4% paraformaldehyde, incubated with AlexaFluor 488-CRT antibody for 2 h, stained with DAPI, and observed under CLSM using 405 nm and 488 nm lasers for visualizing nuclei and CRT expression on the cell membrane, respectively. […] The samples were analyzed by flow cytometer (LSRII Orange, BD, Franklin Lakes, N.J., United States of America) to identify cell surface CRT. The fluorescence intensity of stained cells was gated on PI-negative cells.
# CT26 cells [8] = test: In vitro cytotoxicity of NCP-2/MTX; type: cell-based, murine; conditions: CT26, drug ratio 2:1; read-out: Oxaliplatin IC50
# Method: (§5) The cytotoxicity of NCP-2/MTX was evaluated against two syngeneic cancer cell lines:colorectal adenocarcinoma CT26 and colorectal carcinoma MC38. By combining two chemotherapeutic agents with vastly different solubility requirements, NCP-2/MTX elicited substantial anticancer efficacy owing to synergy between the drugs. […] The combination index (CI50) for the two drugs was much more favorable for the 2:1 compared to 1:1 molar ratio, with equal Pt doses.
# MC38 cells [9] = test: In vitro cytotoxicity of NCP-2/MTX; type: cell-based, murine; conditions: MC38, drug ratio 1:1; read-out: Oxaliplatin IC50
# Method: as §5
# CT26 cells [10] = test: In vitro cytotoxicity of NCP-2/DHA; type: cell-based, murine
# Method: (§6) The cytotoxicity of NCP-2/DHA was evaluated against two colon cancer cell lines CT26 and MC38. […] The combination index (CI50) for the two drugs was lower than 1 in some drug effect levels, indicating the syngestic effect between two drugs.
# MC38 cells [11] = test: In vitro cytotoxicity of NCP-2/DHA; type: cell-based, murine
# Method: as §6
# HT29 cells = test: In vitro PDT cytotoxicity; type: cell-based, human; conditions: read-out: Oxaliplatin IC50
# Method: as §2
# CT26 cells [12] = test: HMGB-1 release by ELISA; type: cell-based, murine; conditions: CT26, oxaliplatin 10 μM and/or DHA 20 μM, 48 h
# Method: The release of high mobility group box-1 (HMGB-1) protein after ICD was evaluated by ELISA. CT26 cells were seeded at 1×10^6 cells per well in 6-well plates and further cultured for 24 h. The culture media were replaced by 2 mL of fresh culture media containing 10% FBS. Oxaliplatin, DHA, chol-DHA, oxaliplatin+DHA, NCP-3, Zn/DHA, NCP-3/DHA, and NCP-3/OA-DHA were added to the cells, respectively, at equivalent oxaliplatin and/or DHA dose of 10 μM and 20 μM, respectively. Cells incubated with PBS served as control. Following incubation of 48 h, the supernatant was collected and analyzed by an ELISA kit (Chondrex, Inc., Redmond, Wash., United States of America) by microplate reader.
# CT26 cells [13] = test: In vitro cytotoxicity of NCP-3/DHA; type: cell-based, murine
# Method: (§7) The cytotoxicity of NCP-3/DHA was evaluated against two colon cancer cell lines CT26 and MC38.
# MC38 cells [14] = test: In vitro cytotoxicity of NCP-3/DHA; type: cell-based, murine
# Method: as §7
# CT26 cells [15] = test: Apoptosis/necrosis by Annexin V flow cytometry; type: cell-based, murine; conditions: CT26, 24 h, oxaliplatin concentration 10 μM
# Method: CT26 cells seeded in 24-well plates at 1×10^5 cells/well were first incubated with NCP-3/DHA or appropriate controls for 24 h at an oxaliplatin concentration of 10 μM. The floating and adherent cells were collected and stained with Alexa Fluor 488 AnnexinV/dead cell apoptosis kit (Invitrogen, USA) according to manufacturer's instructions. The apoptosis and necrosis were examined by a flow cytometry (LSRII Blue, BD, Franklin Lakes, N.J., United States of America).
# A2780/CDDP cells [16] = test: In vitro cytotoxicity of cisplatin, OTS167 and NCP-1/OTS167; type: cell-based
# Method: The cytotoxicity of NCP-1/OTS167 with different molar ratio was then evaluated.
# A2780/CDDP cells [17] = test: In vitro cytotoxicity in ovarian cancer cells, MTS, 72 h; type: cell-based
# Method: (§8) A2780, A2780/CDDP, and SKOV-3 cells were seeded into 96-well plate at 2000 cells/well for 24 h. Afterwards cells were treated with free DHA or Zn/DHA at various concentrations and incubated for another 72 h. The cell viability was then determined via MTS assay by microplate reader.
# (§9) A2780, A2780/CDDP, and SKOV-3 cells were seeded into 96-well plate at 2000 cells/well for 24 h. Afterwards cells were treated with different formulations at various concentrations and incubated for another 72 h. The cell viability was then determined via MTS assay by microplate reader.
# H460 cells = test: In vitro cytotoxicity against non-small cell lung cancer cells, MTS, 72 h; type: cell-based; conditions: Homo sapiens, NCI-H460
# Method: H460 and A549 cells seeded on 96-well plates at a density of 2000 cells/well were treated with Zn/PTX and free PTX at various […] concentrations for 72 h. The cell viability was then detected by MTS assay (Promega, USA) and the IC50 values were calculated accordingly.
# A2780 cells = test: In vitro cytotoxicity in ovarian cancer cells, MTS, 72 h; type: cell-based; conditions: Homo sapiens; A2780, 72 h, DHA concentration; read-out: IC50 of DHA (numbers in parenthesis)
# Method: as §8, §9
# SKOV-3 cells = test: as above; type: cell-based; conditions: Homo sapiens, SK-OV-3; SKOV-3, 72 h, DHA concentration; read-out: IC50 of DHA (numbers in parenthesis)
# Method: as §8, §9
# [18] = CT26, read-out: Oxaliplatin IC50
# [19] = MC38, read-out: Oxaliplatin IC50
# [20] = Mus musculus, CT26, DHA concentration, read-out: DHA IC50
# [21] = Mus musculus, MC-38, MC38, DHA concentration, read-out: DHA IC50
smiles,measurement,setting,value
COc1cc([C@@H]2c3cc4c(cc3[C@@H](O[C@@H]3O[C@@H]5CO[C@@H](C)O[C@H]5[C@H](O)[C@H]3O)[C@H]3COC(=O)[C@H]23)OCO4)cc(OC)c1O [Etoposide],IC50,H82 cells [1],8.83 ± 0.13 µM
same,IC50,"H69 cells; Homo sapiens, NCI-H69",42.2 ± 0.61 µM
same,IC50,"H82 cells [2]; Homo sapiens, NCI-H82",30.9 ± 0.37 µM
O=C1[O][Pt]2([NH][C@@H]3CCCC[C@H]3[NH]2)[O]C1=O [oxaliplatin],IC50,"CT26 cells [3]; CT26, irradiation No",5.05 ± 0.95 µM
same,IC50,"CT26 cells [3]; CT26, irradiation Yes (670 nm, 54 J/cm^2)",4.97 ± 0.49 µM
same,IC50,"CT26 cells [4]; CT26 (cell-line cell empty), drug ratio 2:1",10.2 ± 0.98 µM
same,IC50,"CT26 cells [4]; CT26, drug ratio 1:1",7.05 ± 0.95 µM
same,IC50,MC38 cells [5],3.35 ± 0.13 µM
same,cell surface CRT expression,CT26 cells [6],caused cell surface CRT expression
same,surface CRT expression,CT26 cells [7],significant amounts of CRT
same,IC50,CT26 cells [8],7.05 ± 0.59 µM
same,IC50,MC38 cells [9],3.35 ± 0.13 µM
same,IC50,CT26 cells [10]; [18],5.77 ± 1.06 µM
same,IC50,MC38 cells [11]; [19],7.87 ± 1.32 µM
same,IC50,"HT29 cells; HT29, irradiation No",1.44 ± 0.32 µM
same,IC50,"HT29 cells; HT29, irradiation Yes (670 nm, 54 J/cm^2)",1.87 ± 0.31 µM
same,HMGB-1 release,CT26 cells [12],HMGB-1 release
same,IC50,CT26 cells [13]; [18],10.3 ± 1.62 µM
same,IC50,MC38 cells [14]; [19],12.8 ± 1.32 µM
same,apoptosis and necrosis,CT26 cells [15],caused necrosis
CC(=O)c1cnc2ccc(-c3cc(Cl)c(O)c(Cl)c3)nc2c1N[C@H]1CC[C@H](CN(C)C)CC1 [OTS167],IC50,"A2780/CDDP cells [16]; OTS167 concentration, read-out: IC50, OTS167",0.0121 ± 0.00046 µM
"N.N.[Cl][Pt][Cl] [Cisplatin, cisplatin]",IC50,"A2780/CDDP cells [16]; cisplatin concentration, read-out: IC50, Cisplatin",12.8 ± 0.19 µM
same,IC50,"A2780/CDDP cells [17]; cisplatin concentration, read-out: IC50 of cisplatin",19.8 ± 4.01 µM
same,IC50,H69 cells,13.2 ± 0.35 µM
same,IC50,H82 cells [2],7.93 ± 0.7 µM
"CC(=O)O[C@H]1C(=O)[C@@]2(C)[C@H]([C@H](OC(=O)c3ccccc3)[C@]3(O)C[C@H](OC(=O)[C@H](O)[C@@H](NC(=O)c4ccccc4)c4ccccc4)C(C)=C1C3(C)C)[C@]1(OC(C)=O)CO[C@@H]1C[C@@H]2O [PTX, Paclitaxel]",IC50,H460 cells,10.8 ± 0.44 µM
"C[C@H]1[C@@H](O)O[C@@H]2O[C@@]3(C)CC[C@H]4[C@H](C)CC[C@@H]1[C@@]24OO3 [DHA, dihydroartemisinin]",IC50,"A2780/CDDP cells [17]; DHA concentration, read-out: IC50 of DHA (numbers in parenthesis)",2.61 ± 0.18 µM
same,IC50,A2780 cells,0.3 ± 0.11 µM
same,IC50,SKOV-3 cells,9.9 ± 0.34 µM
same,IC50,CT26 cells [10]; [20],7.77 ± 2.68 µM
same,IC50,MC38 cells [11]; [21],4.83 ± 1.12 µM
same,IC50,CT26 cells [13]; [20],6.25 ± 1.53 µM
same,IC50,MC38 cells [14]; [21],9.68 ± 1.12 µM
